# Entries after “also recorded” stand apart in the source; their conditions may differ.
# What was measured:
# IRS1 [1] = assay: IRS1 Ser-phosphorylation in YUMAC cells; type: cell-based, human; settings: metastatic melanoma YUMAC cells
# Description: (§1) In addition, lysates were prepared from cells exposed to inhibitors at various concentrations for 24 hours in the presence or the absence of FCS without stimulation. Lysate preparation and western blot were the same as described above. Apoptosis was detected by immunoblotting with rabbit anti-PARP antibodies.
# [2] = test system: metastatic melanoma YUMAC cells; assay: Apoptosis (cleaved PARP) in YUMAC cells; type: cell-based, human; settings: 24 hours of exposure, 3 μM
# Description: as §1
# IGF1R [3] = biological target: T1, IGF1R (Homo sapiens, UniProt P08069); assay: IGF1R cellular free kinase assay (pGT substrate phosphorylation); type: biochemical; settings: partially purified IGF1R; 20 μM ATP; read-out: IC50 values of IGF1R activity in cellular free kinase assay
# T1 construct: made in house
# T1 sequence (P08069 31-1367, species assumed): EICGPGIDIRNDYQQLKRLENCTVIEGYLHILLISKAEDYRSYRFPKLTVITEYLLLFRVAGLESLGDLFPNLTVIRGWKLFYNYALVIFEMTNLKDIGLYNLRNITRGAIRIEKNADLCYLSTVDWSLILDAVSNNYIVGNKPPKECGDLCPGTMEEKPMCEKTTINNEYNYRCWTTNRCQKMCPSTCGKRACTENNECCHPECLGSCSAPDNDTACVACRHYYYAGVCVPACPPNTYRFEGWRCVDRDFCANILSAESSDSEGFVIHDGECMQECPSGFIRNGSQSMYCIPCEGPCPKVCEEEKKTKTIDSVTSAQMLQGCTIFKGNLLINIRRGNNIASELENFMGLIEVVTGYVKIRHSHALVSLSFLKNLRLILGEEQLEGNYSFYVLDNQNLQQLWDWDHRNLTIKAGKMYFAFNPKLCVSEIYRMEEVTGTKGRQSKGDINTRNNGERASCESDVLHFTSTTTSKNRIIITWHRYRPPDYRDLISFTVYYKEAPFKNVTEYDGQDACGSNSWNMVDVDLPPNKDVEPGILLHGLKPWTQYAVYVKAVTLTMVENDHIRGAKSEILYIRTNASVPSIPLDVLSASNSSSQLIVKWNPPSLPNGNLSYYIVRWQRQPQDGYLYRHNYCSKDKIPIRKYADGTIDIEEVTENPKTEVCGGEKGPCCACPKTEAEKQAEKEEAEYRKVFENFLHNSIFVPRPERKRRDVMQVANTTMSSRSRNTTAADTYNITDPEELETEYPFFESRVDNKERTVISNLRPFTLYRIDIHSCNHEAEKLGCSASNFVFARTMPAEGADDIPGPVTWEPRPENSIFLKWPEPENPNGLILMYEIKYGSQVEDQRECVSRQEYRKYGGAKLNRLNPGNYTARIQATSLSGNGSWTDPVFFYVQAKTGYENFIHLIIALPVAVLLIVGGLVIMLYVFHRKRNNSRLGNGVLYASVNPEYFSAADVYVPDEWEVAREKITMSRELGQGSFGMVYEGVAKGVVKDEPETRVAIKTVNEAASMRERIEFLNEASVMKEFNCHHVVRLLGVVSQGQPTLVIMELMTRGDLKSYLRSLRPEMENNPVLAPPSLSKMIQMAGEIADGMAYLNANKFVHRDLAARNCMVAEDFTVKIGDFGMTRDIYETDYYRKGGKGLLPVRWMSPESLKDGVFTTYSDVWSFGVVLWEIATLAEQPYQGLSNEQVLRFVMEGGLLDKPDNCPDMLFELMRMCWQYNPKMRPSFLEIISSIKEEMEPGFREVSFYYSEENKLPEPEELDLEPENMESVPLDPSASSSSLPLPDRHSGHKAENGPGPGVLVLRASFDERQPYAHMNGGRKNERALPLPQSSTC
# Description: The general protein-tyrosine kinase substrate, poly(Glu,Tyr) 4:1 (pGT), was coated onto a 96-well Maxisorp plates (Nunc) by adding 125 μl of 0.1 mg/ml pGT in PBS to each well. Plates were sealed and incubated for 16 hours at 37° C., washed once with TBST (10 mM Tris-HCl, pH 7.5, 50 mM NaCl, and 0.1% Triton X-100) and once with DDW, dried for 2-3 hours, and stored at 4° C. […] The plate was then washed with TBS with 0.2% Tween 20 (TBST) and blocked with 0.5% BSA in TBST. Mouse monoclonal anti-phosphotyrosine antibody, conjugated to Horse radish peroxidase (PT-66, 1:50000) was added to the plate. Following incubation for 45 min at room temperature, the plate was washed repeatedly with TBST. Detection was carried out with a color reagent, 2,2′-azido-bis-3-ethylbenzithiazoline-6-sulfonic acid, in citrate-phosphate buffer, pH 4.0, with 0.004% H2O2 for 10 min and monitored at 405 nm, all at room temperature. IC50 values of inhibitors were calculated using the REGRESSION program. The assay was optimized with respect to the amount of IGF-1R (partially purified from cells overexpressing IGF1R), reaction time, and ATP concentration. The signal was linear for 30 min in the range of IGF1R protein concentrations up to 35 ng/well.
# YUMAC = assay: Proliferation assay YUMAC; type: cell-based; settings: Homo sapiens; Table 4; 72 hours incubation; read-out: Inhibition of human metastatic melanoma cells, YUMAC IC50
# Description: (§2) Various cancer cell lines (listed in table 1) were plated at a density of 1000-5000 cells/well in 96-well plates in 90111 growth medium containing 10% FCS, 100 units/ml penicillin and 100 μg/ml streptomycin. Inhibitors were added a day later in 10 μl of 1% DMSO in DDW to obtain final concentrations of 0, 0.1, 0.3, 1, 3, and 10 μM. The final concentration of DMSO (0.1% DMSO) was kept constant in all samples. Medium with inhibitors was refreshed a day and two days later. Following exposure of the cells to the inhibitors for 72 hours at 37° C., the cells were fixed in 0.5% gluteraldehyde in medium for 10 min, washed three times with DDW, once with 0.1M sodium borate buffer pH 8.5 and stained with 1% methylene blue dissolved in 0.1M borate buffer solution for 60 min. Excess dye was washed out and cell-bound dye was eluted with 200 μl/well of 0.1 M HCl. The optical density value was read at 620 nm in ELISA plate reader. The data was analyzed in Microsoft Excel, using the vehicle control as 100% proliferation. The assays were performed in triplicates. The values in table 1 represent IC50 values derived from the dose-dependent growth curves obtained.
# (§3) Compounds 6, 7, 8, and 9 were tested for their inhibitory potential in cell proliferation assay. In this assay cells were exposed to increasing concentrations of the molecules (at 0.1% DMSO in all wells) a day after seeding. Medium and inhibitors were refreshed every day, and following three days of treatment, cells were fixed and stained with methylene-Blue. IC50 values were determined from the curves of the optical density against compound concentration. The assay was performed in triplicates.
# YURIF = assay: Proliferation assay YURIF; type: cell-based; settings: Homo sapiens; Table 4; 72 hours incubation; read-out: Inhibition of human metastatic melanoma cells, YURIF IC50
# Description: as §2, §3
# IRS1 [4] = assay: IRS1 Ser-phosphorylation and IRS1 levels in MCF7 cells; type: cell-based; settings: breast cancer MCF7 cells
# Description: (§4) Tyrosine autophosphorylation of the β-subunit of IGF1R as well as downstream signaling induced by IGF1R were assayed in breast cancer MCF7 cells. Tyrosine autophosphorylation of the EGFR and the EGFR signaling was assayed in prostate cancer PC3 cells. Tyrosine autophosphorylation of the PDGFR and its signaling was assayed in fibroblasts overexpres sing PDGFR. Tyro sine autophosphorylation of the IR and its signaling was assayed in fibroblasts overexpressing IR. Cells were seeded in 6-well plates (MCF7-250,000 cells/well, PC3-150,000 cells/well, fibroblasts-140,000 cells/well) and 24 hours later medium was replaced by serum-free medium (DMEM supplemented with 100 units/ml penicillin and 100 μg/ml streptomycin). Following 20 hours of serum-starvation medium was replaced with medium containing various concentrations of the inhibitors in 0.1% DMSO for additional 4 hours. Cells were then stimulated for 5 min with 50 ng/ml IGF-1 (MCF7 cells), 20 ng/ml EGF (PC3 cells), 50 ng/ml PDGF (fibroblasts overexpressing PDGFR) or 100 nM insulin (fibroblasts overexpressing IR), washed twice with PBS and lysed by boiling sample buffer (10% glycerol, 50 mM Tris-HCl, pH 6.8, 3% SDS, and 5%, β-mercaptoethanol). Equal amounts of protein per lane were separated by 8% SDS-PAGE and transferred to a nitrocellulose membrane (Sartorius AG). Phosphorylated proteins were immunoblotted with anti-phospho-IGF1R (phosphor-IGF1R), anti-phosphotyrosine-IRS1 (phospho-IRS1), anti-phospho(T308)Akt (phospho-PKB), anti-phospho-Erk (phospho-ERK), anti-phosphotyrosine 4G10&PY20 (pY-EGFR or pY-PDGFR), anti-phospho-Ser^636/639-IRS1 (pS^636/639-IRS1) and anti-phospho-STAT3 (phospho-STAT3) antibodies. Detection was performed with horseradish peroxidase-conjugated secondary antibody using the ECL system. Blots were then stripped of antibodies, blocked with TBST with 5% low fat milk and re-probed with antibodies detecting both the phosphorylated and the non-phosphorylated corresponding proteins e.g. IGF1Rβ, IRS1, PKB, ERK, IRβ, PDGFR and Stat3.
# as §1
# IGF1R [5] = biological target: T1, IGF1R; assay: Inhibition of IGF1-induced signaling in intact MCF7 cells (western blot); type: cell-based; settings: 4 h exposure, IGF1 stimulation
# Description: as §4
SMILES,IRS1 Ser-phosphorylation (IRS1 [1]),Cleavage of PARP (apoptosis) [2],IC50 (IGF1R [3]),IC50 (YUMAC),IC50 (YURIF),IRS1 Ser-phosphorylation (IRS1 [4]),"Inhibition of IGF1R autophosphorylation and IGF1-induced signaling (IRS1 pTyr, Akt/PKB, MAPK/ERK) (IGF1R [5])"
Oc1cc(CNC(=S)/C=C/c2cc(O)c(O)c(I)c2)cc(O)c1O [Compound 10],trigger IRS1-ser phosphorylation; also recorded: detected,detected,33 nM,300 nM,470 nM,trigger IRS1-ser phosphorylation,–
N#C/C(=C\c1cc(O)c(O)c(Cl)c1)C(=S)NCc1cc(O)c(O)c(O)c1 [Compound 11],trigger IRS1-ser phosphorylation,–,30 to 200 nM,1200 nM,1200 nM,trigger IRS1-ser phosphorylation,–
N#C/C(=C\c1cc(O)c(O)c(F)c1)C(=S)NCc1cc(O)c(O)c(O)c1 [Compound 12],–,–,169 nM,–,–,–,–
N#C/C(=C\c1cc(O)c(O)c(C(F)(F)F)c1)C(=S)NCc1cc(O)c(O)c(O)c1 [Compound 13],trigger IRS1-ser phosphorylation; also recorded: detected,detected,68 nM,1000 nM,870 nM,trigger IRS1-ser phosphorylation,–
N#C/C(=C\c1cc(O)c(O)c(Br)c1)C(=S)NCc1ccc(O)c(O)c1 [Compound 15],–,–,115 nM,–,–,–,–
N#C/C(=C\c1cc(O)c(O)c(I)c1)C(=S)NCc1ccc(O)c(O)c1 [Compound 16],–,–,193 nM,–,–,–,–
N#C/C(=C\c1cc(O)c(O)c(O)c1)C(=S)NCc1cc(O)c(O)c(Br)c1 [Compound 17],–,–,49 nM,> 10000 nM,> 10000 nM,–,–
Oc1cc(/C=C/C(=S)NCc2cc(O)c(O)c(Br)c2)cc(Br)c1O [Compound 18],–,–,196 nM,–,–,–,–
N#C/C(=C\c1cccc(Br)c1)C(=S)NCc1cc(O)c(O)c(O)c1 [Compound 19],–,–,700 nM,~10000 nM,> 10000 nM,–,–
"N#C/C(=C\c1ccc2oc(=S)[nH]c2c1)C(=O)c1ccc(O)c(O)c1 [Compound 20, reference compound]",–,–,–,–,–,–,had no effect on the signaling

# Source: patent US8058309B2, “Protein kinase modulators and therapeutic uses thereof” (Novotyr Therapeutics Ltd., priority 2006, dated 2011)
